How the values were obtained:
[1] = In vivo inhibition of BTK-dependent B cell activation in C57BL/6 mouse immunized with NP-Ficoll assessed as reduction in anti-NP IgM antibody titer at 0.1 mg/kg, po BID dosed for 10 days; format: functional; set-up: scale not given: the % may be the effect or the level left; conditions: time 10 day
[2] = Volume of distribution at steady state in Beagle dog at 5 mg/kg, po; format: ADME, organism-based, Canis lupus familiaris; conditions: in vivo
[3] = Drugmetabolism in mouse hepatocytes assessed as metabolite formation; format: ADME, cell-based, Hepatocyte
[4] = molecular target: Cytochrome P450 1A2 (Homo sapiens, UniProt P05177); test: Inhibition of CYP1A2 in human liver microsomes at 10 to 50 uM; format: ADME; conditions: dose 10-50 µM
Cytochrome P450 1A2, sequence (P05177 whole entry): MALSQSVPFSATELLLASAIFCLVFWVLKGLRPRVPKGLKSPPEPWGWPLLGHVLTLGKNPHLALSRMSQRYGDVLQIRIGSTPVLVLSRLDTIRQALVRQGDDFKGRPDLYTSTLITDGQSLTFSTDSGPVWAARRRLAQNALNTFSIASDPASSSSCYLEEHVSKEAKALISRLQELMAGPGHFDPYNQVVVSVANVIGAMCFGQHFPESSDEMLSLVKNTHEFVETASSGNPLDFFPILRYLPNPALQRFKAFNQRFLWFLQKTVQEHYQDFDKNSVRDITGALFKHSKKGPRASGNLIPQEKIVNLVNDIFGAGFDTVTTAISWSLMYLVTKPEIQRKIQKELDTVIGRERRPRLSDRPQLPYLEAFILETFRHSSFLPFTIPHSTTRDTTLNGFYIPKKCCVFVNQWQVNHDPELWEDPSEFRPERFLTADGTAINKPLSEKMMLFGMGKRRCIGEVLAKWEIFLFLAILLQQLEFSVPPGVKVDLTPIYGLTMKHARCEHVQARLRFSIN

[5] = Dissociation constant, pKa of the compound; format: physicochemical
[6] = In vivo inhibition of BTK-dependent B cell activation in C57BL/6 mouse immunized with NP-Ficoll assessed as reduction in anti-NP IgM antibody titer at 10 mg/kg, po BID dosed for 10 days; format: functional; set-up: scale not given: the % may be the effect or the level left; conditions: time 10 day
[7] = Lipophilicity, logD of the compound at pH 7.6 by shake flask assay; format: physicochemical; conditions: buffer
[8] = In vivo toxicity in cynomolgus monkey assessed as NOAEL after 28 days; format: organism-based, Macaca fascicularis; conditions: time 28 day
[9] = Drugmetabolism in human hepatocytes assessed as metabolite formation; format: ADME, cell-based, Hepatocyte
[10] = Clearance in cynomolgus monkey assessed as hepatic blood flow at 1 mg/kg, iv; format: ADME, organism-based, Macaca fascicularis, Liver; conditions: in vivo
[11] = tested on: Cynomolgus monkey; test: In vivo toxicity in cynomolgus monkey assessed as compound related pathology at 250 mg/kg after 28 days; format: organism-based, Macaca fascicularis; conditions: 672 h, time 28 day
[12] = Hepatotoxicity in rat primary cells assessed as change in ATP level for 10 days; format: toxicity, cell-based, Hepatocyte; conditions: hepatocytes, 240 h, time 10 day
[13] = molecular target: Broad substrate specificity ATP-binding cassette transporter ABCG2 (Homo sapiens, UniProt Q9UNQ0); test: Inhibition of BCRP (unknown origin) at >30 uM
Broad substrate specificity ATP-binding cassette transporter ABCG2, sequence (Q9UNQ0 whole entry): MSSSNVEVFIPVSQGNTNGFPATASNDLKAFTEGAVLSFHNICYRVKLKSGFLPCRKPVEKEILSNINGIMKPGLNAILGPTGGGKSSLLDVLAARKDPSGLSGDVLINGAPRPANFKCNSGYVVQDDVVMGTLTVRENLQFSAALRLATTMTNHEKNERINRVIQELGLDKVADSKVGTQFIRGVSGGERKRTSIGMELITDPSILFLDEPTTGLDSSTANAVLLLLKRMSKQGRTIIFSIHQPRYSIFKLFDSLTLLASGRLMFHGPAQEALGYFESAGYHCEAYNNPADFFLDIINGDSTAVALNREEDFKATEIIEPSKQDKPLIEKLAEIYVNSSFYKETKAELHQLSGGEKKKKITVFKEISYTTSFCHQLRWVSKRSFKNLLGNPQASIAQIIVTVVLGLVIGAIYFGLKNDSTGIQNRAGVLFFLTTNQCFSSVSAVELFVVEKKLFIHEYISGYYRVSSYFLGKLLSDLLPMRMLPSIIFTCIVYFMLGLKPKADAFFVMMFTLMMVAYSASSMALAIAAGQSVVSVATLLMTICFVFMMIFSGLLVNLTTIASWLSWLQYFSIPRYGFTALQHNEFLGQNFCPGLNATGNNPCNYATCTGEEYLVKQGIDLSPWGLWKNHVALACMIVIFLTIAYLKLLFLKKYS

[14] = molecular target: Bile salt export pump (Homo sapiens, UniProt O95342); test: Inhibition of BSEP (unknown origin) at >30 uM
Bile salt export pump, sequence (O95342 whole entry): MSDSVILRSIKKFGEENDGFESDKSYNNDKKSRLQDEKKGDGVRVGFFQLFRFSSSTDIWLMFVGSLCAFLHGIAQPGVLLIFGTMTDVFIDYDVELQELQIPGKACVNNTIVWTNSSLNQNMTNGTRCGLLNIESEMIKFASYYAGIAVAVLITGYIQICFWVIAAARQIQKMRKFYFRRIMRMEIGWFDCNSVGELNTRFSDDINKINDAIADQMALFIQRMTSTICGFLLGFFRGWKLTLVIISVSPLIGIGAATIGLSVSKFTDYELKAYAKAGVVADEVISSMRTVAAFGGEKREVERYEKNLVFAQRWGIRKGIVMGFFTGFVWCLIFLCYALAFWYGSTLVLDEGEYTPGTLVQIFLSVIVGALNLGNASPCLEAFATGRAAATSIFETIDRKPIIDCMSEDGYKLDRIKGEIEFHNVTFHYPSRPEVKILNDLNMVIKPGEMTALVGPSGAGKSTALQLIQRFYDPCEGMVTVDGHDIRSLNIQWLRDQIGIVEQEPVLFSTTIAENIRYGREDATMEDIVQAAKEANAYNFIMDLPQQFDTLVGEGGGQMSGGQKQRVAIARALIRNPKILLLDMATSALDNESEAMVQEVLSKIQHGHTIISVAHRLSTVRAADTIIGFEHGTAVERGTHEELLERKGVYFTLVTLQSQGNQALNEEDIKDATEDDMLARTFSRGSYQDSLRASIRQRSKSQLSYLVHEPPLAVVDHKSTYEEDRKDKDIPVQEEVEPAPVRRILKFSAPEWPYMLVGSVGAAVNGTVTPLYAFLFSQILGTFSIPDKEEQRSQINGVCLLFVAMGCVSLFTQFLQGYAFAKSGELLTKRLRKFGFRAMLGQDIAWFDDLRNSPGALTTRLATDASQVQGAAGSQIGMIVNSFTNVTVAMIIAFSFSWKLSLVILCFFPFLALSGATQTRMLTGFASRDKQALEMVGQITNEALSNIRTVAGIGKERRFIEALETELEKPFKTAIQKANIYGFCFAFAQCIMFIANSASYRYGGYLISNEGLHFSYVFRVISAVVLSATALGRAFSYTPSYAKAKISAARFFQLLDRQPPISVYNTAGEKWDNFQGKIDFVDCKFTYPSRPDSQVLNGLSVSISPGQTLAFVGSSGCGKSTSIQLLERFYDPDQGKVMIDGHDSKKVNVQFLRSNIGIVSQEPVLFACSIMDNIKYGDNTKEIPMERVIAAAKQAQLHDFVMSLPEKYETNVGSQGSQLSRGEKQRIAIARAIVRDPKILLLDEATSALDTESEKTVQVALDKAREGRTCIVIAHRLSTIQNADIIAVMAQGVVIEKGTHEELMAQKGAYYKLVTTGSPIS

[15] = Clearance in Beagle dog assessed as hepatic blood flow at 1 mg/kg, iv; format: ADME, organism-based, Canis lupus familiaris, Liver; conditions: in vivo
[16] = molecular target: Tyrosine-protein kinase Tec (Homo sapiens, UniProt P42680); test: Binding affinity to wild-type human partial length TEC (L341 to D620 residues) expressed in bacterial expression system by Kinomescan method
Tyrosine-protein kinase Tec, sequence (P42680 whole entry, the tested form may be a part): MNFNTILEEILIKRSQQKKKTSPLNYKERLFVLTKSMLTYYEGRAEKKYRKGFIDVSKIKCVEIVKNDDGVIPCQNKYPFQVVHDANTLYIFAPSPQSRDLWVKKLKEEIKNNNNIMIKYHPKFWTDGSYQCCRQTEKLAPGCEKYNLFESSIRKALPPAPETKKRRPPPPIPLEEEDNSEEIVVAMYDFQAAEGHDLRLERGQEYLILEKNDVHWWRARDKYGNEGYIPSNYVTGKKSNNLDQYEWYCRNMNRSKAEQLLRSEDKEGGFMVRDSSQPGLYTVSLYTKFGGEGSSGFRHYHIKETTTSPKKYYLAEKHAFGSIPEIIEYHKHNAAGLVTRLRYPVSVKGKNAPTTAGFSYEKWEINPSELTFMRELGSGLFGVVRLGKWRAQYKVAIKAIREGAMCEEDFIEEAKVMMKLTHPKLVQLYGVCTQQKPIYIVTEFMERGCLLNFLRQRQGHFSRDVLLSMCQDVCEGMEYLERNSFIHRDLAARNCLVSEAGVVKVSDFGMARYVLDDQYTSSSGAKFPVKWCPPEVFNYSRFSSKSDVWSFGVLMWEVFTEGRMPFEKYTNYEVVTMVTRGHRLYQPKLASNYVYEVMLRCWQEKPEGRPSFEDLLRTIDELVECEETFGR

[17] = molecular target: Proto-oncogene tyrosine-protein kinase Src (Homo sapiens, UniProt P12931); test: Binding affinity to wild-type human partial length SRC (L240 to L536 residues) expressed in bacterial expression system by Kinomescan method
Proto-oncogene tyrosine-protein kinase Src, sequence (P12931 2-536 limits assumed): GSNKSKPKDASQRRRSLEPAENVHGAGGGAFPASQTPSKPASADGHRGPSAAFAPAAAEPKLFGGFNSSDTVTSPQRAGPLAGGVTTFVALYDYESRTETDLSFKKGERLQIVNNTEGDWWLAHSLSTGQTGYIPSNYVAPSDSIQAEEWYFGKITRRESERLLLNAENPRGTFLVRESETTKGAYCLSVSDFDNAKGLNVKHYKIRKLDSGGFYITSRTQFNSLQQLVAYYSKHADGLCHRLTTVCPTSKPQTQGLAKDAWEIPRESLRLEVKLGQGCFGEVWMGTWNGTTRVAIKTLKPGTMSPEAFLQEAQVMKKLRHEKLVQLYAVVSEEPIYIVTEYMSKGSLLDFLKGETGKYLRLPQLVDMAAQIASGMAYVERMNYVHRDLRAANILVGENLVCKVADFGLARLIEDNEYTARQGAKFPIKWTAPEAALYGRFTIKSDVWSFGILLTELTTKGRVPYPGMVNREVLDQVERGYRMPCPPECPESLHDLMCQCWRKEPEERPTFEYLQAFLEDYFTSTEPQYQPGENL

Vdss [2]: 1.7 L/kg | Drug metabolism [3]: Metabolite_Notdetected | inhibition (INH) [4]: Not Active | pKa [5]: 2.8 | logD [7]: 2.2 | Drug metabolism [9]: Metabolite_Notdetected | QH [10]: 44% | inhibition (INH) [13]: Not Active | QH [15]: 33% | Kd [16]: 240 nM | Kd [17]: 320 nM
SMILES: Cn1cc(Nc2nccc(-c3ccc4c(c3)CN(C3COC3)CC[C@H]4NC(=O)c3cn(C(C)(C)C)nn3)n2)cn1 [BIIB-091]
Activity [1]: 44% | Activity [6]: 77% | NOAEL at 672 h [8]: 250 mg/kg | Activity [11]: Non-Toxic | Activity [12]: Non-Toxic | inhibition (INH) [14]: Not Active
